Columns and labels:
[1] = biological target: T1, human κ-opioid receptor (Homo sapiens, UniProt P41145); assay: Agonist activity on human κ-opioid receptors (inhibition of forskolin-stimulated cAMP release, TR-FRET); type: cell-based; conditions: OPRK1 cells (DiscoveRx)
T1 construct: host or cells: OPRK1 cells (DiscoveRx)
Excerpt: Test 1: Agonist Activity on Human κ-Opioid Receptors
Forskolin can stimulate the release of cAMP from a human κ-opioid receptor-overexpressing cell line, OPRK1 cells (DiscoveRx), and κ-opioid receptor agonists can inhibit the cAMP release stimulated by forskolin. By detecting the inhibitory effect of the test compound on the cAMP release stimulated by forskolin, the agonistic activity of the compound on the human κ-opioid receptor can be determined. First, a certain concentration of forskolin and different concentrations of the test compound were incubated with human κ-opioid receptor overexpressing cell lines. A cAMP immunoassay (LANCE®, PerkinElmer) based on time-resolved fluorescence resonance energy transfer (TR-FRET) was used to determine cAMP levels in the stimulated OPRK1 cells. The specific method is as follows:
OPRK1 cells (DiscoveRx) that highly express human κ-opioid receptors were cultured in McCoy's 5A (Gibco 16600-082) medium containing 10% FBS (Gibco 10099-141). On the day of the experiment, the cells in the exponential growth phase were washed and separated with PBS/5 mM EDTA, collected by centrifugation, resuspended with Stimulation Buffer and counted. The concentration of cells was adjusted to 3*10^5 cells/ml. DMSO was used to dissolve Forskolin and the test compound respectively, so that the mother liquor concentration each was 10 mM, and then diluted Forskolin to […] with Stimulation Buffer, and different concentrations of the test compound (the concentrations were 80, 16, 3.2, 0.64, 0.128, 0.0256, 0.00512, 0.001024, 0 μM) was added, 5 μl per well was added to a 384-well plate. 5 μl of cell suspension was added to each well and incubated at room temperature for 30 min. Subsequently, 5 μl of 4×Eu-cAMP tracer working solution (50-fold dilution of Eu-cAMP stock solution with cAMP Detection Buffer) and 5 μl of 4×Ulight-anti-cAMP working solution (150-fold dilution of ULight-anti-cAMP stock solution with cAMP Detection Buffer) were added to each well, and incubated at room temperature for 1 hour. 384-well plates were assayed for cAMP levels using a microplate reader (Perkin Elmer, Envision) TR-FRET method. The obtained data were processed and fitted to EC50 using the origin 7.5 software. The human κ-opioid receptor agonistic activity of the compound of the present invention was measured through the above experiments, and the measured EC50 values are shown in Table 1.
Stimulation Buffer preparation method: 14 mL 1*HBSS (invitrogen, cat. #14025-092), 75 μL 1 M HEPES (Invitrogen, cat. #15630-080), 30 μL 250 mM IBMX was dissolved in DMSO (Sigma, cat. #17018) and mixed with 200 μL 7.5% BSA Stabilizer. pH of the solution was adjusted to 7.4 with 0.1 N NaOH and make up to 15 mL with 1*HBSS.

[2] = Mouse PK test; type: in vivo; conditions: plasma, male ICR mice, iv, 1 mg/kg (calculated in free form)
[3] = Rat PK test; type: in vivo; conditions: male SD rats, iv, 1 mg/kg (calculated in free form)

T1 sequence (P41145 whole entry): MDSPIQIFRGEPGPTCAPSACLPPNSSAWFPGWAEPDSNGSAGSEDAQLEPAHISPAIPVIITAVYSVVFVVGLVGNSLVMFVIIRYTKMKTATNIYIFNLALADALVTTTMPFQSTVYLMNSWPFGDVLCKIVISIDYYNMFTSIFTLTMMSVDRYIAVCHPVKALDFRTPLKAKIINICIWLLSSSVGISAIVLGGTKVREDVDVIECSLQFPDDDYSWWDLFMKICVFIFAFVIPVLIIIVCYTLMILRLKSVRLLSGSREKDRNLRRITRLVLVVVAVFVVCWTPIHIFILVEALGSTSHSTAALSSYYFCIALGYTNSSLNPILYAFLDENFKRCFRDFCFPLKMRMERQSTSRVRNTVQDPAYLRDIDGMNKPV

Row | SMILES | EC50 [1] [nM] | other results
1 | CC(C)C[C@@H](NC(=O)[C@@H](Cc1ccccc1)NC(=O)[C@H](N)Cc1ccccc1)C(=O)N[C@H](CCCCN)C(=O)N1CC2(CCN(S(C)(=O)=O)CC2)C1 [Compound 12, (2R)—N-[(1R)-5-amino-1-(7-methylsulfonyl-2,7-diazaspiro[3.5]nonane-2-carbonyl)pentyl]-2-[[(2R)-2-[[(2R)-2-amino-3-phenyl-propanoyl]amino]-3-phenyl-propanoyl]amino]-4-methyl-pentanamide; di-trifluoroacetic acid] | 0.067 | 
2 | CC(C)C[C@@H](NC(=O)[C@@H](Cc1ccccc1)NC(=O)[C@H](N)Cc1ccccc1)C(=O)N[C@H](CCCCN)C(=O)N1CCC2(CC1)CN(C(=O)N1CC(S(C)(=O)=O)C1)C2 [Compound 14, (2R)—N-[(1R)-5-amino-1-[2-(3-methylsulfonylazetidine-1-carbonyl)-2,7-diazaspiro[3.5]nonane-7-carbonyl]pentyl]-2-[[(2R)-2-[[(2R)-2-amino-3-phenyl-propanoyl]amino]-3-phenyl-propanoyl]amino]-4-methyl-pentanamide; di-trifluoroacetic acid] | 0.0155 | 
3 | CC(C)C[C@@H](NC(=O)[C@@H](Cc1ccccc1)NC(=O)[C@H](N)Cc1ccccc1)C(=O)N[C@H](CCCCN)C(=O)N1CCC2(CC1)CC(N1CCCCC1)C2 [Compound 23, (2R)-2-[[(2R)-2-[[(2R)-2-amino-3-phenyl-propanoyl]amino]-3-phenyl-propanoyl]amino]-N-[(1R)-5-amino-1-[2-(1-piperidinyl)-7-azaspiro[3.5]nonane-7-carbonyl]pentyl]-4-methyl-pentanamide; tri-trifluoroacetic acid] | 0.023 | 
4 | CC(=O)N1CCC2(C1)CN(C(=O)[C@@H](CCCCN)NC(=O)[C@@H](CC(C)C)NC(=O)[C@@H](Cc1ccccc1)NC(=O)[C@H](N)Cc1ccccc1)C2 [Compound 30, (2R)—N-[(1R)-1-(7-acetyl-2,7-diazaspiro[3.4]octane-2-carbonyl)-5-amino-pentyl]-2-[[(2R)-2-[[(2R)-2-amino-3-phenyl-propanoyl]amino]-3-phenyl-propanoyl]amino]-4-methyl-pentanamide; di-trifluoroacetic acid] | 0.071 | 
5 | CC(C)C[C@@H](NC(=O)[C@@H](Cc1ccccc1)NC(=O)[C@H](N)Cc1ccccc1)C(=O)N[C@H](CCCCN)C(=O)N1CCC2(CC1)CN(C(=O)[C@@H](C)N)C2 [Compound 17, (2R)—N-[(1R)-5-amino-1-[2-[(2R)-2-aminopropanoyl]-2,7-diazaspiro[3.5]nonane-7-carbonyl]pentyl]-2-[[(2R)-2-[[(2R)-2-amino-3-phenyl-propanoyl]amino]-3-phenyl-propanoyl]amino]-4-methyl-pentanamide; tri-trifluoroacetic acid] | 0.00919 | AUC(0-t) [2]: 2240 ng·h/mL; half-life [2]: 3.88 h
6 | CC(=O)N1CCC2(CC1)CN(C(=O)[C@@H](CCCCN)NC(=O)[C@@H](CC(C)C)NC(=O)[C@@H](Cc1ccccc1)NC(=O)[C@H](N)Cc1ccccc1)C2 [Compound 20, (2R)—N-[(1R)-1-(7-acetyl-2,7-diazaspiro[3.5]nonane-2-carbonyl)-5-amino-pentyl]-2-[[(2R)-2-[[(2R)-2-amino-3-phenyl-propanoyl]amino]-3-phenyl-propanoyl]amino]-4-methyl-pentanamide; di-trifluoroacetic acid] | 0.086 | 
7 | CNC(=O)N1CCC2(CCN(C(=O)[C@@H](CCCCN)NC(=O)[C@@H](CC(C)C)NC(=O)[C@@H](Cc3ccccc3)NC(=O)[C@H](N)Cc3ccccc3)C2)C1 (stereo partly drawn) [Compound 22, 7-[(2R)-6-amino-2-[[(2R)-2-[[(2R)-2-[[(2R)-2-amino-3-phenyl-propanoyl]amino]-3-phenyl-propanoyl]amino]-4-methyl-pentanoyl]amino]hexanoyl]-N-methyl-2,7-diazaspiro[4.4]nonane-2-carboxamide; di-trifluoroacetic acid] | 0.0112 | 
8 | CC(C)C[C@@H](NC(=O)[C@@H](Cc1ccccc1)NC(=O)[C@H](N)Cc1ccccc1)C(=O)N[C@H](CCCCN)C(=O)N1CCC(N)(C(=O)O)CC1 [CR-845] |  | AUC(0-t) [2]: 1120 ng·h/mL; half-life [2]: 0.388 h; Cl [3]: 8.29 ml/kgmin; AUC(0-t) ([3]; rat, plasma): 1960 ng·h/mL; half-life ([3]; rat, plasma): 3.9 h; Vd ([3]; rat, plasma, read-out: Vdss): 1.56 L/kg
9 | CC(=O)N1CCC2(CCN(C(=O)[C@@H](CCCCN)NC(=O)[C@@H](CC(C)C)NC(=O)[C@@H](Cc3ccccc3)NC(=O)[C@H](N)Cc3ccccc3)C2)C1 (stereo partly drawn) [Compound 31, (2R)—N-[(1R)-1-(7-acetyl-2,7-diazaspiro[4.4]nonane-2-carbonyl)-5-amino-pentyl]-2-[[(2R)-2-[[(2R)-2-amino-3-phenyl-propanoyl]amino]-3-phenyl-propanoyl]amino]-4-methyl-pentanamide; di-trifluoroacetic acid] | 0.0136 | 
10 | CC(C)C[C@@H](NC(=O)[C@@H](Cc1ccccc1)NC(=O)[C@H](N)Cc1ccccc1)C(=O)N[C@H](CCCCN)C(=O)N1CCC2(CC1)CN(C(=O)N1CCCC1)C2 [Compound 13, (2R)-2-[[(2R)-2-[[(2R)-2-amino-3-phenyl-propanoyl]amino]-3-phenyl-propanoyl]amino]-N-[(1R)-5-amino-1-[2-(pyrrolidin-1-carbonyl)-2,7-diazaspiro[3.5]nonane-7-carbonyl]pentyl]-4-methyl-pentanamide; di-trifluoroacetic acid] | 0.00682 | 
11 | CC(C)C[C@@H](NC(=O)[C@@H](Cc1ccccc1)NC(=O)[C@H](N)Cc1ccccc1)C(=O)N[C@H](CCCCN)C(=O)N1CC2(CCN(C3COC3)CC2)C1 [Compound 33, (2R)—N-[(1R)-5-amino-1-[7-(oxetan-3-yl)-2,7-diazaspiro[3.5]nonane-2-carbonyl]pentyl]-2-[[(2R)-2-[[(2R)-2-amino-3-phenyl-propanoyl]amino]-3-phenyl-propanoyl]amino]-4-methyl-pentanamide; tri-trifluoroacetic acid] | 0.05 | 
12 | CC(C)C[C@@H](NC(=O)[C@@H](Cc1ccccc1)NC(=O)[C@H](N)Cc1ccccc1)C(=O)N[C@H](CCCCN)C(=O)N1CC2(CCN(C(=O)[C@@H](C)N)CC2)C1 [Compound 18, (2R)—N-[(1R)-5-amino-1-[7-[(2R)-2-aminopropanoyl]-2,7-diazaspiro[3.5]nonane-2-carbonyl]pentyl]-2-[[(2R)-2-[[(2R)-2-amino-3-phenyl-propanoyl]amino]-3-phenyl-propanoyl]amino]-4-methyl-pentanamide; tri-trifluoroacetic acid] | 0.04 | 
13 | CC(C)C[C@@H](NC(=O)[C@@H](Cc1ccccc1)NC(=O)[C@H](N)Cc1ccccc1)C(=O)N[C@H](CCCCN)C(=O)N1CC2(CCN(C(=O)[C@@H](C)N)CC2(F)F)C1 [Compound 19, (2R)—N-[(1R)-5-amino-1-[7-[(2R)-2-aminopropanoyl]-5,5-difluoro-2,7-diazaspiro[3.5]nonane-2-carbonyl]pentyl]-2-[[(2R)-2-[[(2R)-2-amino-3-phenyl-propanoyl]amino]-3-phenyl-propanoyl]amino]-4-methyl-pentanamide; tri-trifluoroacetic acid] | 0.044 | 

From patent US11014964B2, “Peptide amide compound and preparation method and medical use thereof” (Sichuan Haisco Pharmaceutical Co., Ltd., priority 2017, dated 2021)
